{
  "source": "patent US20230023559A1",
  "about": "“ARYLMETHYLENE HETEROCYCLIC COMPOUNDS AS KV1.3 POTASSIUM SHAKER CHANNEL BLOCKERS” (D. E. Shaw Research, LLC, priority 2019, published 2023)",
  "biological_target": "T1, Kv1.3 potassium channel (Homo sapiens, UniProt P22001)",
  "T1 construct": "expressed in transfected cells",
  "T1 sequence (P22001 whole entry)": "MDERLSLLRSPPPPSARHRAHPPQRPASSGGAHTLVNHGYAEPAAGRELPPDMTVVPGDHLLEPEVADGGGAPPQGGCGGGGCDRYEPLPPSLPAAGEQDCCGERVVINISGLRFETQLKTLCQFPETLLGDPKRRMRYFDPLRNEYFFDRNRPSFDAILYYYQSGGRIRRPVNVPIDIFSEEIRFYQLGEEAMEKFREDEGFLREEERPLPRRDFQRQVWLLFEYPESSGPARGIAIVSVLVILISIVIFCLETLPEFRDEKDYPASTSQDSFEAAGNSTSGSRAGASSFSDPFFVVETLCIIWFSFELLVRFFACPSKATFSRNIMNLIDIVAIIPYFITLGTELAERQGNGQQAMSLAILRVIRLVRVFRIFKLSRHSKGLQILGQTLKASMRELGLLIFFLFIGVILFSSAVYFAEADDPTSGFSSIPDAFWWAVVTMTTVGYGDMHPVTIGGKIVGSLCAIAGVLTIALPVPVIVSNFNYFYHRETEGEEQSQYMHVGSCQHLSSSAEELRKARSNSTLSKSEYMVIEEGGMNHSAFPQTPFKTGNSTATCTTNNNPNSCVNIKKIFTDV",
  "assay": "Kv1.3 potassium channel blocker activity, automated whole-cell patch clamp (Patchliner)",
  "type": "cell-based",
  "conditions": "CHO-K1 cells stably expressing Kv1.3; whole cell current inhibition; read-out: Kv1.3_IC50",
  "procedure": "The assay described below is used to evaluate the disclosed compound's activities as Kv1.3 potassium channel blockers.\nCHO-K1 cells stably expressing Kv1.3 were grown in DMEM containing 10% heat-inactivated FBS, 1 mM Sodium Pyruvate, 2 mM L-Glutamine and G418 (500 μg/ml).\nAll compounds were dissolved in DMSO at 30 mM.\nThe currents were evoked by applying 100 ms depolarizing pulses from −90 mV (holding potential) to +40 mV were applied with 0.1 Hz frequency. […] 10 second breaks were used between pulse trains (see Table A below).\nData were sampled at 10 kHz without filtering. Passive leak currents were subtracted online using a P/4 procedure (HEKA Elektronik Dr. Schulze GmbH). […] Total compound incubation time before the next pulse train was not longer than 10 seconds. Peak current inhibition was observed during compound equilibration.",
  "data": [
    {"smiles": "Cc1cc(CN2CCC(C(N)c3cc(Cl)c(Cl)cc3O)CC2)no1", "note": "(stereo not drawn) [Compound 58, 2-[amino([1-[(5-methyl-1,2-oxazol-3-yl)methyl]piperidin-4-yl])methyl]-4,5-dichlorophenol Trifluoroacetic Acid]", "values": [
      {"measurement": "IC50", "result": "< 10", "unit": "µM"}
    ]},
    {"smiles": "NC(c1cc(Cl)c(Cl)cc1O)C1CCN(CC(F)F)CC1", "note": "(stereo not drawn) [Compound 62, 2-(amino(1-(2,2-difluoroethyl)piperidin-4-yl)methyl)-4,5-dichlorophenol Trifluoroacetic Acid]", "values": [
      {"measurement": "IC50", "result": "< 10", "unit": "µM"}
    ]},
    {"smiles": "COCCN1CCC(C(N)c2cc(Cl)c(Cl)cc2O)CC1", "note": "(stereo not drawn) [Compound 64, 2-(amino(1-(2-methoxyethyl)piperidin-4-yl)methyl)-4,5-dichlorophenol]", "values": [
      {"measurement": "IC50", "result": "< 10", "unit": "µM"}
    ]},
    {"smiles": "NC(c1cc(Cl)c(Cl)cc1O)C1CCN(C2CCNC2=O)CC1", "note": "(stereo not drawn) [Compound 65, 3-(4-(amino(4,5-dichloro-2-hydroxyphenyl)methyl)piperidin-1-yl)pyrrolidin-2-one Trifluoroacetic Acid]", "values": [
      {"measurement": "IC50", "result": "< 10", "unit": "µM"}
    ]},
    {"smiles": "CS(=O)(=O)N1CCC(C(N)c2cc(Cl)c(Cl)cc2O)CC1", "note": "(stereo not drawn) [Compound 71, 2-[amino(1-methanesulfonylpiperidin-4-yl)methyl]-4,5-dichlorophenol Trifluoroacetic Acid]", "values": [
      {"measurement": "IC50", "result": "< 10", "unit": "µM"}
    ]},
    {"smiles": "NC(c1cc(Cl)c(Cl)cc1O)C1CCN(C(=O)C(F)(F)F)CC1", "note": "(stereo not drawn) [Compound 77, 1-[4-[amino(4,5-dichloro-2-hydroxyphenyl)methyl]piperidin-1-yl]-2,2,2-trifluoroethan-1-one Trifluoroacetic Acid]", "values": [
      {"measurement": "IC50", "result": "< 10", "unit": "µM"}
    ]},
    {"smiles": "NC(=O)CCN1CCC(C(N)c2cc(Cl)c(Cl)cc2O)CC1", "note": "(stereo not drawn) [Compound 78]", "values": [
      {"measurement": "IC50", "result": "< 10", "unit": "µM"}
    ]},
    {"smiles": "N[C@H](c1cc(Cl)c(Cl)cc1O)C1CCN(C(=O)[C@H]2CCNC2)CC1", "note": "[Compound 79, (4-((S)-amino(4,5-dichloro-2-hydroxyphenyl)methyl)piperidin-1-yl)((S)-pyrrolidin-3-yl)methanone]", "values": [
      {"measurement": "IC50", "result": "< 10", "unit": "µM"}
    ]},
    {"smiles": "NC(c1c(O)ccc(Cl)c1Cl)C1CCNCC1", "note": "(stereo not drawn) [Compound 86, 2-[amino(piperidin-4-yl)methyl]-3,4-dichlorophenol Bis(Trifluoroacetic Acid)]", "values": [
      {"measurement": "IC50", "result": "< 30", "unit": "µM"}
    ]},
    {"smiles": "CC[C@@H](N)C(=O)N1CCC([C@@H](N)c2cc(Cl)c(Cl)cc2O)CC1", "note": "[Compound 88, (R)-2-amino-1-(4-((R)-amino(4,5-dichloro-2-hydroxyphenyl)methyl)piperidin-1-yl)butan-1-one trifluoroacetic acid]", "values": [
      {"measurement": "IC50", "result": "< 0.5", "unit": "µM"}
    ]},
    {"smiles": "CC(C)(N)C(=O)N1CCC([C@@H](N)c2cc(Cl)c(Cl)cc2O)CC1", "note": "[Compound 90, (R)-2-amino-1-(4-(amino(4,5-dichloro-2-hydroxyphenyl)methyl)piperidin-1-yl)-2-methylpropan-1-one trifluoroacetic acid]", "values": [
      {"measurement": "IC50", "result": "< 0.5", "unit": "µM"}
    ]},
    {"smiles": "CC[C@H](N)C(=O)N1CCC([C@@H](N)c2cc(Cl)c(Cl)cc2O)CC1", "note": "[Compound 91, (S)-2-amino-1-(4-((R)-amino(4,5-dichloro-2-hydroxyphenyl)methyl)piperidin-1-yl)butan-1-one trifluoroacetic acid]", "values": [
      {"measurement": "IC50", "result": "< 0.5", "unit": "µM"}
    ]},
    {"smiles": "CC(C)C[C@H](N)C(=O)N1CCC([C@@H](N)c2cc(Cl)c(Cl)cc2O)CC1", "note": "[Compound 93, (S)-2-amino-1-(4-((R)-amino (4,5-dichloro-2-hydroxyphenyl)methyl)piperidin-1-yl)-4-methylpentan-1-one]", "values": [
      {"measurement": "IC50", "result": "< 10", "unit": "µM"}
    ]},
    {"smiles": "CC(C)C[C@@H](N)C(=O)N1CCC([C@@H](N)c2cc(Cl)c(Cl)cc2O)CC1", "note": "[Compound 94, (R)-2-amino-1-(4-((R)-amino(4,5-dichloro-2-hydroxyphenyl)methyl)piperidin-1-yl)-4-methylpentan-1-one trifluoroacetic acid]", "values": [
      {"measurement": "IC50", "result": "< 0.5", "unit": "µM"}
    ]},
    {"smiles": "CC(=O)NC(c1cc(Cl)c(Cl)cc1O)C1CCN(C(=O)[C@@H]2CCNC2)CC1", "note": "(stereo partly drawn) [Compound 108, N-((4,5-dichloro-2-hydroxyphenyl)(1-((R)-pyrrolidine-3-carbonyl)piperidin-4-yl)methyl)acetamide Trifluoroacetic Acid]", "values": [
      {"measurement": "IC50", "result": "< 10", "unit": "µM"}
    ]},
    {"smiles": "N[C@@H](c1cc(Cl)c(Cl)cc1O)C1CCN(C(=O)C2CNCC2(F)F)CC1", "note": "(stereo partly drawn) [Compound 113, (4-((R)-amino(4,5-dichloro-2-hydroxyphenyl)methyl)piperidin-1-yl)(4,4-difluoropyrrolidin-3-yl)methanone]", "values": [
      {"measurement": "IC50", "result": "< 10", "unit": "µM"}
    ]},
    {"smiles": "O=C([C@H]1CCNC1)N1CCCC(C(O)c2cc(Cl)c(Cl)cc2O)CC1", "note": "(stereo partly drawn) [Compound 128, 4,5-dichloro-2-[hydroxy([1-[(3S)-pyrrolidine-3-carbonyl]azepan-4-yl])methyl]phenol]", "values": [
      {"measurement": "IC50", "result": "< 10", "unit": "µM"}
    ]},
    {"smiles": "CCNC(c1cc(Cl)c(Cl)cc1O)C1CCN(C(=O)C(O)CO)CC1", "note": "(stereo not drawn) [Compound 182, 1-[4-[(4,5-dichloro-2-hydroxyphenyl)(ethylamino)methyl]piperidin-1-yl]-2,3-dihydroxypropan-1-one Trifluoroacetic Acid]", "values": [
      {"measurement": "IC50", "result": "< 10", "unit": "µM"}
    ]},
    {"smiles": "CNC(c1cc(Cl)c(Cl)cc1O)C1CCN(C(=O)C(O)CO)CC1", "note": "(stereo not drawn) [Compound 184, 1-[4-[(4,5-dichloro-2-hydroxyphenyl)(methylamino)methyl]piperidin-1-yl]-2,3-dihydroxypropan-1-one Trifluoroacetic Acid]", "values": [
      {"measurement": "IC50", "result": "< 10", "unit": "µM"}
    ]},
    {"smiles": "N[C@@H](c1c(O)ccc(Cl)c1Cl)C1CCN(C(=O)[C@H](O)CO)CC1", "note": "[Compound 187, (2R)-1-[4-[(R)-amino(2,3-dichloro-6-hydroxyphenyl)methyl]piperidin-1-yl]-2,3-dihydroxypropan-1-one Trifluoroacetic Acid]", "values": [
      {"measurement": "IC50", "result": "< 10", "unit": "µM"}
    ]},
    {"smiles": "CN(C)C(c1cc(Cl)c(Cl)cc1O)C1CCN(C(=O)[C@H](O)CO)CC1", "note": "(stereo partly drawn) [Compound 193, (2R)-1-[4-[(4,5-dichloro-2-hydroxyphenyl)(dimethylamino)methyl]piperidin-1-yl]-2,3-dihydroxypropan-1-one Trifluoroacetic Acid]", "values": [
      {"measurement": "IC50", "result": "< 30", "unit": "µM"}
    ]},
    {"smiles": "CCNC(c1cc(Cl)c(Cl)cc1O)C1CCN(C(=O)[C@H](O)CO)CC1", "note": "(stereo partly drawn) [Compound 202, (2R)-1-[4-[(4,5-dichloro-2-hydroxyphenyl)(ethylamino)methyl]piperidin-1-yl]-2,3-dihydroxypropan-1-one Trifluoroacetic Acid]", "values": [
      {"measurement": "IC50", "result": "< 30", "unit": "µM"}
    ]},
    {"smiles": "NC(c1cc(Cl)c(Cl)cc1O)[C@@H]1C[C@@H]2CN(C(=O)[C@H](O)CO)C[C@@H]2C1", "note": "(stereo partly drawn) [Compound 225, (2R)-1-((3aR,5R,6aS)-5-(amino(4,5-dichloro-2-hydroxyphenyl)methyl)hexahydrocyclopenta[c]pyrrol-2 (1H)-yl)-2,3-dihydroxypropan-1-one]", "values": [
      {"measurement": "IC50", "result": "< 10", "unit": "µM"}
    ]},
    {"smiles": "N[C@@H](c1cc(Cl)c(C(F)F)cc1O)C1CCN(C(=O)[C@H](O)CO)CC1", "note": "[Compound 227, (2R)-1-[4-[(R)-amino[5-chloro-4-(difluoromethyl)-2-hydroxyphenyl]methyl]piperidin-1-yl]-2,3-dihydroxypropan-1-one Trifluoroacetic Acid]", "values": [
      {"measurement": "IC50", "result": "< 0.5", "unit": "µM"}
    ]},
    {"smiles": "N[C@@H](c1cc(Cl)c(Cl)cc1O)C1CCN(C(=O)[C@@H]2CNC(=O)CO2)CC1", "note": "[Compound 229, (6S)-6-[4-[(R)-amino(4,5-dichloro-2-hydroxyphenyl)methyl]piperidine-1-carbonyl]morpholin-3-one Trifluoroacetic Acid]", "values": [
      {"measurement": "IC50", "result": "< 10", "unit": "µM"}
    ]},
    {"smiles": "Cc1[nH]c(=O)ccc1C(=O)N1CCC([C@@H](N)c2cc(Cl)c(Cl)cc2O)CC1", "note": "[Compound 230, (R)-5-(4-(amino(4,5-dichloro-2-hydroxyphenyl)methyl)piperidine-1-carbonyl)-6-methylpyridin-2(1H)-one]", "values": [
      {"measurement": "IC50", "result": "< 10", "unit": "µM"}
    ]},
    {"smiles": "Cc1cc(O)c([C@H](N)C2CCN(C(=O)c3ccncc3)CC2)cc1Cl", "note": "[Compound 234, 2-[(R)-amino[1-(pyridine-4-carbonyl)piperidin-4-yl]methyl]-4-chloro-5-methylphenol trifluoroacetic acid]", "values": [
      {"measurement": "IC50", "result": "< 0.5", "unit": "µM"}
    ]},
    {"smiles": "CO[C@H](CO)C(=O)N1CCC([C@@H](N)c2cc(Cl)c(C)cc2O)CC1", "note": "[Compound 250, (2R)-1-[4-[(R)-amino(5-chloro-2-hydroxy-4-methylphenyl)methyl]piperidin-1-yl]-3-hydroxy-2-methoxypropan-1-one trifluoroacetic acid]", "values": [
      {"measurement": "IC50", "result": "< 0.5", "unit": "µM"}
    ]},
    {"smiles": "COc1cc(C(=O)N2CCC([C@@H](N)c3cc(Cl)c(C)cc3O)CC2)c[nH]c1=O", "note": "[Compound 251, 5-[4-[(R)-amino(5-chloro-2-hydroxy-4-methylphenyl)methyl]piperidine-1-carbonyl]-3-methoxy-1H-pyridin-2-one Trifluoroacetic Acid]", "values": [
      {"measurement": "IC50", "result": "< 0.5", "unit": "µM"}
    ]},
    {"smiles": "N[C@@H](c1cc(Cl)c(Cl)cc1O)C1CCN(C(=O)c2c[nH]c(=O)[nH]c2=O)CC1", "note": "[Compound 252, 5-[4-[(R)-amino(4,5-dichloro-2-hydroxyphenyl)methyl]piperidine-1-carbonyl]-1,3-dihydropyrimidine-2,4-dione formic acid]", "values": [
      {"measurement": "IC50", "result": "< 0.5", "unit": "µM"}
    ]},
    {"smiles": "N[C@@H](c1cc(Cl)c(Cl)cc1O)C1CCN(C(=O)c2ccc(=O)[nH]n2)CC1", "note": "[Compound 253, 6-[4-[(R)-amino(4,5-dichloro-2-hydroxyphenyl)methyl]piperidine-1-carbonyl]-2H-pyridazin-3-one trifluoroacetic acid]", "values": [
      {"measurement": "IC50", "result": "< 0.5", "unit": "µM"}
    ]},
    {"smiles": "N[C@@H](c1cc(Cl)c(Cl)cc1O)C1CCN(C(=O)c2c[nH]c(=O)[nH]2)CC1", "note": "[Compound 254, 4-[4-[(R)-amino(4,5-dichloro-2-hydroxyphenyl)methyl]piperidine-1-carbonyl]-1,3-dihydroimidazol-2-one trifluoro-acetic acid]", "values": [
      {"measurement": "IC50", "result": "< 0.5", "unit": "µM"}
    ]},
    {"smiles": "N[C@@H](c1cc(Cl)c(Cl)cc1O)C1CCN(C(=O)c2c[nH]c(=O)c(Cl)c2)CC1", "note": "[Compound 255, 5-[4-[(R)-amino(4,5-dichloro-2-hydroxyphenyl)methyl]piperidine-1-carbonyl]-3-chloro-1H-pyridin-2-one]", "values": [
      {"measurement": "IC50", "result": "< 0.5", "unit": "µM"}
    ]}
  ]
}
